Reference: PubChem BioAssay (NCI)
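96-well plates; 48 h exposure; 5 concentrations. Endpoints by linear interpolation between flanking doses. Not reached: highest tested concentration assigned. TGI: concentration producing complete growth inhibition.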

How the values were obtained:
Test in all cases: NCI tumour cell line growth inhibition, 48 h
786-0 renal = test system: 786-0 renal
A498 renal = test system: A498 renal
A549 NSCLC = test system: A549 NSCLC
ACHN renal = test system: ACHN renal
CAKI-1 renal = test system: CAKI-1 renal
CCRF-CEM leukemia = test system: CCRF-CEM leukemia
COLO 205 colon = test system: COLO 205 colon
DLD-1 colon = test system: DLD-1 colon
DMS 114 small cell lung = test system: DMS 114 small cell lung
DMS 273 small cell lung = test system: DMS 273 small cell lung
EKVX NSCLC = test system: EKVX NSCLC
HCC-2998 colon = test system: HCC-2998 colon
HCT-116 colon = test system: HCT-116 colon
HCT-15 colon = test system: HCT-15 colon
HL-60(TB) leukemia = test system: HL-60(TB) leukemia
HOP-18 NSCLC = test system: HOP-18 NSCLC
HOP-62 NSCLC = test system: HOP-62 NSCLC
HOP-92 NSCLC = test system: HOP-92 NSCLC
HT29 colon = test system: HT29 colon
IGROV1 ovarian = test system: IGROV1 ovarian
K-562 leukemia = test system: K-562 leukemia
KM12 colon = test system: KM12 colon
KM20L2 colon = test system: KM20L2 colon
LXFL 529 NSCLC = test system: LXFL 529 NSCLC
M14 melanoma = test system: M14 melanoma
M19-MEL melanoma = test system: M19-MEL melanoma
MALME-3M melanoma = test system: MALME-3M melanoma
MOLT-4 leukemia = test system: MOLT-4 leukemia
NCI-H226 lung = test system: NCI-H226 lung
NCI-H23 lung = test system: NCI-H23 lung
NCI-H460 lung = test system: NCI-H460 lung
NCI-H522 lung = test system: NCI-H522 lung
OVCAR-3 ovarian = test system: OVCAR-3 ovarian
OVCAR-4 ovarian = test system: OVCAR-4 ovarian
OVCAR-5 ovarian = test system: OVCAR-5 ovarian
OVCAR-8 ovarian = test system: OVCAR-8 ovarian
RPMI-8226 leukemia = test system: RPMI-8226 leukemia
RXF 393 renal = test system: RXF 393 renal
SF-268 CNS = test system: SF-268 CNS
SF-295 CNS = test system: SF-295 CNS
SF-539 CNS = test system: SF-539 CNS
SK-MEL-2 melanoma = test system: SK-MEL-2 melanoma
SK-MEL-28 melanoma = test system: SK-MEL-28 melanoma
SK-MEL-5 melanoma = test system: SK-MEL-5 melanoma
SK-OV-3 ovarian = test system: SK-OV-3 ovarian
SN12C renal = test system: SN12C renal
SNB-19 CNS = test system: SNB-19 CNS
SNB-75 CNS = test system: SNB-75 CNS
SNB-78 CNS = test system: SNB-78 CNS
SR leukemia = test system: SR leukemia
SW-620 colon = test system: SW-620 colon
U251 CNS = test system: U251 CNS
UACC-257 melanoma = test system: UACC-257 melanoma
UACC-62 melanoma = test system: UACC-62 melanoma
UO-31 renal = test system: UO-31 renal
XF 498 CNS = test system: XF 498 CNS

OCCCCCNc1ccnc2cc(Cl)ccc12
TGI (786-0 renal): > 100 µM
TGI (A498 renal): > 100 µM
TGI (A549 NSCLC): > 100 µM
TGI (ACHN renal): > 100 µM
TGI (CAKI-1 renal): > 100 µM
TGI (CCRF-CEM leukemia): > 100 µM
TGI (COLO 205 colon): > 100 µM
TGI (DLD-1 colon): > 100 µM
TGI (DMS 114 small cell lung): > 100 µM
TGI (DMS 273 small cell lung): > 100 µM
TGI (EKVX NSCLC): > 100 µM
TGI (HCC-2998 colon): > 100 µM
TGI (HCT-116 colon): > 100 µM
TGI (HCT-15 colon): > 100 µM
TGI (HL-60(TB) leukemia): > 100 µM
TGI (HOP-18 NSCLC): > 100 µM
TGI (HOP-62 NSCLC): > 100 µM
TGI (HOP-92 NSCLC): > 100 µM
TGI (HT29 colon): > 100 µM
TGI (IGROV1 ovarian): > 100 µM
TGI (K-562 leukemia): 64.7 µM
TGI (KM12 colon): > 100 µM
TGI (KM20L2 colon): > 100 µM
TGI (LXFL 529 NSCLC): > 100 µM
TGI (M14 melanoma): > 100 µM
TGI (M19-MEL melanoma): > 100 µM
TGI (MALME-3M melanoma): > 100 µM
TGI (MOLT-4 leukemia): > 100 µM
TGI (NCI-H226 lung): > 100 µM
TGI (NCI-H23 lung): > 100 µM
TGI (NCI-H460 lung): > 100 µM
TGI (NCI-H522 lung): > 100 µM
TGI (OVCAR-3 ovarian): > 100 µM
TGI (OVCAR-4 ovarian): > 100 µM
TGI (OVCAR-5 ovarian): > 100 µM
TGI (OVCAR-8 ovarian): > 100 µM
TGI (RPMI-8226 leukemia): > 100 µM
TGI (RXF 393 renal): > 100 µM
TGI (SF-268 CNS): > 100 µM
TGI (SF-295 CNS): > 100 µM
TGI (SF-539 CNS): > 100 µM
TGI (SK-MEL-2 melanoma): > 100 µM
TGI (SK-MEL-28 melanoma): > 100 µM
TGI (SK-MEL-5 melanoma): > 100 µM
TGI (SK-OV-3 ovarian): > 100 µM
TGI (SN12C renal): > 100 µM
TGI (SNB-19 CNS): > 100 µM
TGI (SNB-75 CNS): > 100 µM
TGI (SNB-78 CNS): > 100 µM
TGI (SR leukemia): 40.8 µM
TGI (SW-620 colon): > 100 µM
TGI (U251 CNS): > 100 µM
TGI (UACC-257 melanoma): > 100 µM
TGI (UACC-62 melanoma): > 100 µM
TGI (UO-31 renal): > 100 µM
TGI (XF 498 CNS): > 100 µM
